SMILES strings stand for the structures. “And” between values parts separate entries of the source, which are not always exact repeats. Identical values can stand only once.

The record followed here is patent US10959432B2, “Microbiocidal oxadiazole derivatives” (Syngenta Participations AG, priority 2016, dated 2021).

Data set [1] concerns Puccinia recondita f. sp. tritici. Briefly: Fungicidal activity against Puccinia recondita f. sp. tritici / wheat / leaf disc preventative (brown rust). The format is in vivo. Conditions: foliar, 200 ppm in the applied formulation, wheat leaf segments cv. Kanzler, preventative (inoculated 1 day after application), assessed 7 to 9 days after application, read-out: disease control compared to untreated control leaf disks. An outline of the steps: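 Wheat cv. Kanzler leaf segments on agar sprayed with formulated compound diluted in water, inoculated with P. recondita spores 1 day later. Incubated at 19C, 75% rh, 12 h light/12 h dark; scored 7 to 9 days after application as percent disease control versus untreated segments. Test rate 200 ppm.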

Data set [2] deals with Glomerella laqenarium (Colletotrichum lagenarium). Briefly: Fungicidal activity against Glomerella lagenarium (Colletotrichum lagenarium) liquid culture / cucumber / preventative (anthracnose). Type of data set: cell-based. As to conditions: Colletotrichum orbiculare; 20 ppm in the applied formulation; liquid culture in PDB, 24° C., 3 to 4 days after application; read-out: disease control compared to untreated control (inhibition of growth measured photometrically). The method in brief: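 Cryostored conidia mixed into potato dextrose broth and added to test compound (from DMSO solution) in microtiter plates. Incubated at 24 °C; growth inhibition read photometrically 3 to 4 days after application, as percent activity versus untreated check.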

The next data set has as its system Uromyces viciae-fabae. Kind of data set: Fungicidal activity against Uromyces viciae-fabae / field bean / leaf disc preventative (faba-bean rust). The format is in vivo. Conditions: foliar, 288 h, 100 ppm in the applied formulation, field bean leaf discs, preventative (inoculated two hours after application), assessed 12 days after application, read-out: disease control compared to untreated control leaf discs. An outline of the steps: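 Field bean leaf discs on water agar treated with 10 μl compound in acetone plus spreader, then spray-inoculated on the lower surface with Uromyces viciae-fabae spores 2 h later. Incubation at 22 °C, 18 h day, 70% RH; percent disease control versus untreated scored 12 days after application, compounds at 100 ppm.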

Another data set deals with Phakopsora pachyrhizi. Kind of data set: Fungicidal activity against Phakopsora pachyrhizi / soybean / leaf disc preventative (Asian soybean rust). Conditions: foliar, 200 ppm in the applied formulation, soybean leaf disks, preventative (inoculated one day after application), assessed 12 to 14 days after application, read-out: disease control compared to untreated control leaf disks. The format is in vivo. An outline of the steps: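 Soybean leaf discs on water agar sprayed with formulated compound diluted in water; spore suspension sprayed on lower leaf surface one day later. Incubated 24-36 h dark at 20° C, 75% rh, then 20° C, 12 h light/day, 75% rh. Percent disease control versus untreated scored 12 to 14 days after application.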

Data set [3] relates to Puccinia recondita f. sp. tritici. Kind of data set: Fungicidal activity against Puccinia recondita f. sp. tritici / wheat / leaf disc curative (brown rust). The format is in vivo. As to conditions: foliar, 200 ppm in the applied formulation, wheat leaf segments cv. Kanzler, curative (applied 1 day after inoculation), assessed 6 to 8 days after application, read-out: disease control compared to untreated control leaf disks. An outline of the steps: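 Wheat cv. Kanzler leaf segments on agar, spore-inoculated, held dark at 19° C./75% RH; formulated compound in water sprayed 1 day post-inoculation (curative). Incubated 19° C., 75% RH, 12 h light/12 h dark; percent disease control vs untreated scored 6 to 8 days after application.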

Broadly, the melting point is the temperature of the solid-liquid transition. As usually defined, the inhibition is the percentage by which the read-out fell short of the control. On to `N#CC(NC(=O)c1ccc(-c2noc(C(F)(F)F)n2)cc1F)c1cccs1` (stereo not shown) [Compound 5b.20, N-[cyano(2-thienyl)methyl]-2-fluoro-4-[5-(trifluoromethyl)-1,2,4-oxadiazol-3-yl]benzamide], for which the melting point is 138.1 to 139.2 °C. Also, in data set [1], the pest or weed control at 200 ppm was at least 80%. The inhibition at 20 ppm in data set [2] is at least 80%. In the data set on Uromyces viciae-fabae, the pest or weed control at 100 ppm was at least 80%. Further, in the data set on Phakopsora pachyrhizi, the pest or weed control at 200 ppm was at least 80%. For the same compound, the pest or weed control at 200 ppm in data set [3] was at least 80%.

With `C#CCNC(=O)c1ccc(-c2noc(C(F)(F)F)n2)cc1F` [Compound 3b.4, 2-fluoro-N-prop-2-ynyl-4-[5-(trifluoromethyl)-1,2,4-oxadiazol-3-yl]benzamide], the melting point was 128.2 to 129.4 °C. In addition, the pest or weed control at 200 ppm in data set [1] was at least 80%. Besides, the inhibition at 20 ppm in data set [2] is at least 80%. Moreover, in the data set with Uromyces viciae-fabae, the pest or weed control at 100 ppm was at least 80%. Further, the pest or weed control at 200 ppm in the data set on Phakopsora pachyrhizi is at least 80%. In addition, the pest or weed control at 200 ppm in data set [3] was at least 80%.

In the case of `C=CCNC(=O)c1ccc(-c2noc(C(F)(F)F)n2)cc1` [Compound 3a.1, N-allyl-4-[5-(trifluoromethyl)-1,2,4-oxadiazol-3-yl]benzamide], the melting point is 135 to 136 °C and 135 to 146 °C. In data set [1], the pest or weed control at 200 ppm was at least 80%. The inhibition at 20 ppm in data set [2] was at least 80%. Also, in the data set on Uromyces viciae-fabae, the pest or weed control at 100 ppm was at least 80%. Moreover, the pest or weed control at 200 ppm with Phakopsora pachyrhizi is at least 80%. Further, the pest or weed control at 200 ppm in data set [3] was at least 80%.

`CC(C)(CO)NC(=O)c1ccc(-c2noc(C(F)(F)F)n2)cc1` [Compound 3a.17, N-(2-hydroxy-1,1-dimethyl-ethyl)-4-[5-(trifluoromethyl)-1,2,4-oxadiazol-3-yl]benzamide] displayed a melting point of 130 to 135 °C. Besides, in data set [1], the pest or weed control at 200 ppm is at least 80%. In data set [2], the inhibition at 20 ppm was at least 80%. The pest or weed control at 100 ppm in the data set on Uromyces viciae-fabae is at least 80%. The pest or weed control at 200 ppm in data set [3] is at least 80%.

Take `Cc1ccccc1CNC(=O)c1ccc(-c2noc(C(F)(F)F)n2)cc1` [Compound 4a.4, N-(o-tolylmethyl)-4-[5-(trifluoromethyl)-1,2,4-oxadiazol-3-yl]benzamide]: the melting point was in the range of 135 to 141 °C. Besides, the pest or weed control at 200 ppm in data set [1] was at least 80%. For the same compound, in data set [2], the inhibition at 20 ppm was at least 80%. Further, the pest or weed control at 100 ppm in the data set on Uromyces viciae-fabae was at least 80%. Besides, in the data set on Phakopsora pachyrhizi, the pest or weed control at 200 ppm was at least 80%. The pest or weed control at 200 ppm in data set [3] was at least 80%.

Take `C#CC(C)(C)NC(=O)c1ccc(-c2noc(C(F)(F)F)n2)cc1F` [Compound 3b.8, N-(1,1-dimethylprop-2-ynyl)-2-fluoro-4-[5-(trifluoromethyl)-1,2,4-oxadiazol-3-yl]benzamide]: the melting point was in the range of 69.2 to 69.7 °C. Moreover, the pest or weed control at 200 ppm in data set [1] is at least 80%. Also, the inhibition at 20 ppm in data set [2] was at least 80%. Further, the pest or weed control at 100 ppm in the data set with Uromyces viciae-fabae was at least 80%. Moreover, the pest or weed control at 200 ppm in the data set on Phakopsora pachyrhizi is at least 80%. In data set [3], the pest or weed control at 200 ppm is at least 80%.

With `CC(C)CC(C)NC(=O)c1ccc(-c2noc(C(F)(F)F)n2)cc1F` (stereo not shown) [Compound 3b.7, N-(1,3-dimethylbutyl)-2-fluoro-4-[5-(trifluoromethyl)-1,2,4-oxadiazol-3-yl]benzamide], the melting point was 108.5 to 110.4 °C. In data set [1], the pest or weed control at 200 ppm was at least 80%. In addition, in data set [2], the inhibition at 20 ppm was at least 80%. Besides, in the data set with Uromyces viciae-fabae, the pest or weed control at 100 ppm was at least 80%. The pest or weed control at 200 ppm in the data set with Phakopsora pachyrhizi was at least 80%.

`CC#CC(C)(C)NC(=O)c1ccc(-c2noc(C(F)(F)F)n2)cc1` [Compound 3a.5, N-(1,1-dimethylbut-2-ynyl)-4-[5-(trifluoromethyl)-1,2,4-oxadiazol-3-yl]benzamide] came in with a melting point of 104 to 105.1 °C. Further, in data set [1], the pest or weed control at 200 ppm was at least 80%. In addition, the pest or weed control at 100 ppm in the data set with Uromyces viciae-fabae is at least 80%. Besides, the pest or weed control at 200 ppm with Phakopsora pachyrhizi is at least 80%. In data set [3], the pest or weed control at 200 ppm was at least 80%.

For the compound `O=C(NCc1ccccc1)c1ccc(-c2noc(C(F)(F)F)n2)cc1F` [Compound 4b.6, N-benzyl-2-fluoro-4-[5-(trifluoromethyl)-1,2,4-oxadiazol-3-yl]benzamide], the melting point is 146 to 147.7 °C. The pest or weed control at 200 ppm in data set [1] is at least 80%. Also, the pest or weed control at 100 ppm with Uromyces viciae-fabae was at least 80%. Moreover, the pest or weed control at 200 ppm with Phakopsora pachyrhizi was at least 80%. In data set [3], the pest or weed control at 200 ppm was at least 80%.

In turn, `COc1ccc(CNC(=O)c2ccc(-c3noc(C(F)(F)F)n3)cc2)cc1` [Compound 4a.3, N-[(4-methoxyphenyl)methyl]-4-[5-(trifluoromethyl)-1,2,4-oxadiazol-3-yl]benzamide] displayed a melting point of 154 to 159 °C. The pest or weed control at 200 ppm in data set [1] was at least 80%. Moreover, the inhibition at 20 ppm in data set [2] was at least 80%. The pest or weed control at 100 ppm in the data set with Uromyces viciae-fabae is at least 80%. The pest or weed control at 200 ppm in the data set on Phakopsora pachyrhizi was at least 80%.

`O=C(NCc1cccs1)c1ccc(-c2noc(C(F)(F)F)n2)cc1F` [Compound 5b.1, 2-fluoro-N-(2-thienylmethyl)-4-[5-(trifluoromethyl)-1,2,4-oxadiazol-3-yl]benzamide] returned a melting point of 142.7 to 143 °C. In data set [1], the pest or weed control at 200 ppm is at least 80%. The pest or weed control at 100 ppm in the data set on Uromyces viciae-fabae is at least 80%. The pest or weed control at 200 ppm in the data set with Phakopsora pachyrhizi was at least 80%. In data set [3], the pest or weed control at 200 ppm was at least 80%.

In the case of `O=C(NCc1ccccc1F)c1ccc(-c2noc(C(F)(F)F)n2)cc1F` [Compound 4b.1, 2-fluoro-N-[(2-fluorophenyl)methyl]-4-[5-(trifluoromethyl)-1,2,4-oxadiazol-3-yl]benzamide], the melting point was in the range of 132 to 136 °C. In data set [1], the pest or weed control at 200 ppm was at least 80%. Besides, the inhibition at 20 ppm in data set [2] was at least 80%. In addition, the pest or weed control at 100 ppm in the data set with Uromyces viciae-fabae was at least 80%. Also, in the data set with Phakopsora pachyrhizi, the pest or weed control at 200 ppm was at least 80%.

As to `COc1ccccc1CNC(=O)c1ccc(-c2noc(C(F)(F)F)n2)cc1F` [Compound 4b.5, 2-fluoro-N-[(2-methoxyphenyl)methyl]-4-[5-(trifluoromethyl)-1,2,4-oxadiazol-3-yl]benzamide], the melting point was 113.3 to 114.8 °C. Moreover, the pest or weed control at 200 ppm in data set [1] was at least 80%. Besides, the inhibition at 20 ppm in data set [2] was at least 80%. The pest or weed control at 100 ppm in the data set with Uromyces viciae-fabae was at least 80%. In addition, the pest or weed control at 200 ppm in the data set with Phakopsora pachyrhizi was at least 80%.

Regarding `O=C(NCCc1ccc(F)cc1)c1ccc(-c2noc(C(F)(F)F)n2)cc1F` [Compound 4b.7, 2-fluoro-N-[2-(4-fluorophenyl)ethyl]-4-[5-(trifluoromethyl)-1,2,4-oxadiazol-3-yl]benzamide], the melting point fell in the range of 128.2 to 129.4 °C. For the same compound, in data set [1], the pest or weed control at 200 ppm is at least 80%. The inhibition at 20 ppm in data set [2] was at least 80%. In addition, the pest or weed control at 100 ppm in the data set with Uromyces viciae-fabae is at least 80%. Also, in the data set with Phakopsora pachyrhizi, the pest or weed control at 200 ppm is at least 80%.

Compound `O=C(NCCc1ccccc1)c1ccc(-c2noc(C(F)(F)F)n2)cc1F` [Compound 4b.8, 2-fluoro-N-(2-phenylethyl)-4-[5-(trifluoromethyl)-1,2,4-oxadiazol-3-yl]benzamide] yielded a melting point of 130 to 131.9 °C. For the same compound, the pest or weed control at 200 ppm in data set [1] is at least 80%. Further, the inhibition at 20 ppm in data set [2] was at least 80%. In addition, the pest or weed control at 100 ppm with Uromyces viciae-fabae was at least 80%. In addition, the pest or weed control at 200 ppm in the data set on Phakopsora pachyrhizi was at least 80%.

`Cc1ccc(CNC(=O)c2ccc(-c3noc(C(F)(F)F)n3)cc2)cc1` [Compound 4a.1, N-(p-tolylmethyl)-4-[5-(trifluoromethyl)-1,2,4-oxadiazol-3-yl]benzamide] had a melting point of 198 to 203 °C. Moreover, the inhibition at 20 ppm in data set [2] was at least 80%. Moreover, the pest or weed control at 100 ppm in the data set on Uromyces viciae-fabae is at least 80%. For the same compound, the pest or weed control at 200 ppm in the data set with Phakopsora pachyrhizi was at least 80%.

`Cc1cccc(CNC(=O)c2ccc(-c3noc(C(F)(F)F)n3)cc2)c1` [Compound 4a.2, N-(m-tolylmethyl)-4-[5-(trifluoromethyl)-1,2,4-oxadiazol-3-yl]benzamide] displayed a melting point of 135 to 141 °C. Besides, the pest or weed control at 200 ppm in data set [1] is at least 80%. The inhibition at 20 ppm in data set [2] was at least 80%. Besides, the pest or weed control at 100 ppm in the data set with Uromyces viciae-fabae is at least 80%. Also, the pest or weed control at 200 ppm in the data set on Phakopsora pachyrhizi was at least 80%.

`O=C(NCc1ccc(F)cc1)c1ccc(-c2noc(C(F)(F)F)n2)cc1F` [Compound 4b.2] displayed a melting point of 145 to 147 °C. The pest or weed control at 200 ppm in data set [1] is at least 80%. For the same compound, in data set [2], the inhibition at 20 ppm was at least 80%. In addition, the pest or weed control at 100 ppm with Uromyces viciae-fabae was at least 80%. Further, the pest or weed control at 200 ppm in the data set with Phakopsora pachyrhizi is at least 80%.
